As usually defined, the IC50 is the concentration that gives 50% inhibition. By solubility is commonly meant the concentration that dissolves in the medium under given conditions. Read a low solubility as a poorly soluble substance.

≈ marks a conversion by molar mass, not a printed value. Where a name gives a salt, the structure may show the parent alone.

Series [1] in a line: Toxicity in female Balb/c mouse implanted with mouse 4T1 cells assessed as appearance of tumor metastasis in lung at 10 mg/kg, ip administered once every 2 days for 14 days by H and E staining based analysis. The format is organism-based. Particulars: in vivo, 336 h, time 14 day.
Series [2] is described as follows: Toxicity in female Balb/c mouse implanted with mouse 4T1 cells assessed as appearance of tumor metastasis in kidney at 10 mg/kg, ip administered once every 2 days for 14 days by H and E staining based analysis. The format is organism-based. The note with it: in vivo, 336 h, time 14 day.
The nature of series [3]: Toxicity in female Balb/c mouse implanted with mouse 4T1 cells assessed as appearance of tumor metastasis in liver at 10 mg/kg, ip administered once every 2 days for 14 days by H and E staining based analysis. Type of series: organism-based. Particulars: in vivo, 336 h, time 14 day.
Series [4] can be described thus: Toxicity in female Balb/c mouse implanted with mouse 4T1 cells assessed as appearance of spleen wrinkling at 10 mg/kg, ip administered once every 2 days for 14 days. Particulars: in vivo, 48 h, time 2 day. The format is organism-based.
Series [5] is described as follows: Toxicity in female Balb/c mouse implanted with mouse 4T1 cells assessed as appearance of irregular necrotic foci in tumor area at 10 mg/kg, ip administered once every 2 days for 14 days by H and E staining based analysis. Type of series: organism-based. The note with it: in vivo, 336 h, time 14 day.
Another series has as its system A549. Briefly: Antiproliferative activity against human A549 cells assessed as inhibition of cell proliferation incubated for 48 hrs by CCK-8 assay. Type of series: functional, cell-based. The note with it: A549, 48 h.
The test system of series [6] is MDA-MB-231. Briefly: Antiproliferative activity against human MDA-MB-231 cells assessed as inhibition of cell proliferation incubated for 48 hrs by CCK-8 assay. Type of series: functional, cell-based. Particulars: MDA-MB-231, 48 h.
A short description of series [7]: Toxicity in female Balb/c mouse implanted with mouse 4T1 cells assessed as appearance of infiltered tumor cells in adipose tissue at 10 mg/kg, ip administered once every 2 days for 14 days by H and E staining based analysis. Type of series: organism-based. The note with it: in vivo, 336 h, time 14 day.
Series [8] is described as follows: Toxicity in female Balb/c mouse implanted with mouse 4T1 cells assessed as appearance of tumor metastasis in spleen at 10 mg/kg, ip administered once every 2 days for 14 days by H and E staining based analysis. Type of series: organism-based. The note with it: in vivo, 336 h, time 14 day.
Series [9] is described as follows: Toxicity in female Balb/c mouse implanted with mouse 4T1 cells assessed as change in body weight at 10 mg/kg, ip administered every 2 days. Type of series: organism-based. Particulars: in vivo, 48 h.
In a further series the test system is HepG2. Briefly: Antiproliferative activity against human HepG2 cells assessed as inhibition of cell proliferation incubated for 48 hrs by CCK-8 assay. Type of series: functional, cell-based. Particulars: HepG2, 48 h. In general terms: Tetrazolium dyes change colour on reduction, which living cells bring about.
A short description of series [10]: Solubility of compound in 0.1 M HCL. The format is physicochemical.
Series [11] can be described thus: Solubility of compound in water. Type of series: physicochemical.
Series [12] concerns MDA-MB-231. Briefly: Induction of apoptosis in human MDA-MB-231 cells assessed as late apoptotic cells at 1 uM incubated for 24 hrs by Annexin-V/PI staining based flow cytometric analysis (reference value: 3.24%). Type of series: functional. (In general: Flow cytometry measures light scatter and fluorescence of single cells or particles in a stream.)
In series [13] the test system is MDA-MB-231. Briefly: Induction of apoptosis in human MDA-MB-231 cells assessed as necrotic cells at 1 uM incubated for 24 hrs by Annexin-V/PI staining based flow cytometric analysis (reference value: 0.71%). Type of series: functional.
The test system of series [14] is MDA-MB-231. Briefly: Induction of cell cycle arrest in human MDA-MB-231 cells assessed as accumulation of cells at G2/M phase at 1 uM incubated for 24 hrs by PI staining based flow cytometric analysis (reference value: 33.98%). The format is functional.
The subject of series [15] is MDA-MB-231. Briefly: Induction of apoptosis in human MDA-MB-231 cells assessed as viable cells at 1 uM incubated for 24 hrs by Annexin-V/PI staining based flow cytometric analysis (reference value: 93.37%). The format is functional. The note with it: read-out: Activity.
The test system of series [16] is MDA-MB-231. Briefly: Induction of apoptosis in human MDA-MB-231 cells assessed as early apoptotic cells at 1 uM incubated for 24 hrs by Annexin-V/PI staining based flow cytometric analysis (reference value: 2.69%). The format is functional.
Series [17] has as its system MDA-MB-231. Briefly: Induction of cell cycle arrest in human MDA-MB-231 cells assessed as accumulation of cells at S phase at 1 uM incubated for 24 hrs by PI staining based flow cytometric analysis (reference value: 8.71%). Type of series: functional.
Series [18] deals with MDA-MB-231. Briefly: Induction of cell cycle arrest in human MDA-MB-231 cells assessed as accumulation of cells at G0/G1 phase at 1 uM incubated for 24 hrs by PI staining based flow cytometric analysis (reference value: 57.31%). Type of series: functional.

Consider `COc1cccc2c1C(=O)c1c(O)c3c(c(O)c1C2=O)C[C@@](O)(C(=O)CO)C[C@@H]3O[C@H]1C[C@H](N)[C@H](O)[C@H](C)O1` [DOXORUBICIN HYDROCHLORIDE], for which the Activity entry in [1], in series [2], in [3], in series [4], in series [5] and in [7] was “Toxic” throughout. Further, the Activity result in [8] and in [9] was “Toxic” throughout. The figures for the IC50 with A549 and in the series with MDA-MB-231 [6] were 0.3 µM and 2.34 µM, respectively.

Regarding `C#CCNC1=C(F)C(=O)C(c2c(C)[nH]c3ccccc23)=C(F)C1=O`, the IC50 is 50.6 µM with HepG2, more than 100 µM in the series on A549 and 7.82 µM in the series with MDA-MB-231 [6].

As for `COC(=O)/C=C/C(=O)OCCCN1CCN(C2=C(F)C(=O)C(F)=C(c3c(C)[nH]c4ccccc34)C2=O)CC1`, the values for the half-maximal inhibitory concentration (IC50) in the series on HepG2, with A549 and in the series with MDA-MB-231 [6] were 4.6 µM, 6.79 µM and 6.97 µM, respectively.

On to `Cc1[nH]c2ccccc2c1C1=C(F)C(=O)C(F)=C(F)C1=O`, for which the IC50 in the series on HepG2 worked out at 12.4 µM; in the series with A549, 14.2 µM; in the series with MDA-MB-231 [6] it was 8.57 µM.

Take `C#CCNC1=C(F)C(=O)C(NCC#C)=C(c2c(C)[nH]c3ccccc23)C1=O`: the values for the half-maximal inhibitory concentration (IC50) in the series with HepG2, in the series with A549 and in the series with MDA-MB-231 [6] were 14.2 µM, 5.21 µM and 15.5 µM, respectively.

As to `COC(=O)/C=C/OCCNC1=C(F)C(=O)C(c2c(C)[nH]c3ccccc23)=C(NCCOC(=O)/C=C/C(=O)OC)C1=O`, the IC50 in the series on HepG2 was 4.44 µM; in the series on A549, 7.02 µM; in the series on MDA-MB-231 [6] it was 12 µM.

`C#CCNC1=C(F)C(=O)C(F)=C(c2c(C)[nH]c3ccccc23)C1=O`: the half-maximal inhibitory concentration (IC50) in the series with HepG2 was 6.43 µM; with A549 it was more than 100 µM; in the series with MDA-MB-231 [6] it was 6.14 µM.

For `Cc1[nH]c2ccccc2c1C1=C(N2CCOCC2)C(=O)C(c2c(C)[nH]c3ccccc23)=C(N2CCOCC2)C1=O`, the IC50 with HepG2 is 11.3 µM; with A549, 10.8 µM; with MDA-MB-231 [6], more than 100 µM.

Consider `Cc1[nH]c2ccccc2c1C1=C(F)C(=O)C(N2CCOCC2)=C(F)C1=O`, for which the concentration for half-maximal inhibition (IC50) in the series on HepG2 is 7.78 µM; in the series with A549, 14.2 µM; in the series on MDA-MB-231 [6], 4.27 µM.

As to `Cc1[nH]c2ccccc2c1C1=C(F)C(=O)C(F)=C(NC2CC2)C1=O`, the half-inhibitory concentration (IC50) was found to be 10.5 µM in the series with HepG2, 4.46 µM with A549 and 7.96 µM with MDA-MB-231 [6].

In the case of `Cc1[nH]c2ccccc2c1C1=C(Cl)C(=O)C(Cl)=C(N2CCOCC2)C1=O`, the solubility in series [10] was 6 µg/mL (≈ 15.3 µM); in series [11], 9 µg/mL (≈ 23 µM).

For the compound `Cc1[nH]c2ccccc2c1C1=C(F)C(=O)C(F)=C(N2CCNCC2)C1=O`, the half-inhibitory concentration (IC50) in the series with HepG2 turned out to be 8.15 µM; in the series with A549, 12.5 µM; in the series on MDA-MB-231 [6], 4.65 µM.

Take `Cc1[nH]c2ccccc2c1C1=C(F)C(=O)C(F)=C(N2CCCCC2)C1=O`: the half-maximal inhibitory concentration (IC50) turned out to be 14.5 µM with HepG2, 32.9 µM with A549 and 8.26 µM in the series with MDA-MB-231 [6].

In the case of `COc1ccc(/C=C\c2cc(OC)c(OC)c(OC)c2)cc1O` [COMBRETASTATIN A4], the Activity was 8.43% in the series with MDA-MB-231 [12]; 1.55% with MDA-MB-231 [13]; 55.89% in the series on MDA-MB-231 [14]; 10.22% in the series with MDA-MB-231 [16]; 9.19% with MDA-MB-231 [17]; 39.37% in the series with MDA-MB-231 [18]. Moreover, the viability at 1 µM in the series on MDA-MB-231 [15] was found to be 79.8%.

For the compound `Cc1[nH]c2ccccc2c1C1=C(F)C(=O)C(F)=C(N2CCN(C=O)CC2)C1=O`, the half-inhibitory concentration (IC50) amounted to 5.43 µM in the series on HepG2, 53.1 µM in the series with A549 and 8 µM with MDA-MB-231 [6].

As for `Cc1[nH]c2ccccc2c1C1=C(N2CCN(C=O)CC2)C(=O)C(F)=C(N2CCN(C=O)CC2)C1=O`, the concentration for half-maximal inhibition (IC50) in the series with HepG2 came out at 8.13 µM; with A549, 12.1 µM; with MDA-MB-231 [6] it was 7.4 µM.

`Cc1[nH]c2ccccc2c1C1=C(F)C(=O)C(c2c(C)[nH]c3ccccc23)=C(F)C1=O`: the IC50 turned out to be 11.3 µM with HepG2, 15.7 µM in the series on A549 and 10.8 µM with MDA-MB-231 [6].

Turning to `Cc1[nH]c2ccccc2c1C1=C(F)C(=O)C(F)=C(NCCNC(=O)OC(C)(C)C)C1=O`, the IC50 came to 4.91 µM with HepG2, 4.76 µM in the series on A549 and 7.18 µM in the series on MDA-MB-231 [6].

As to `COC(=O)/C=C/C(=O)OCCCN1CCN(C2=C(F)C(=O)C(c3c(C)[nH]c4ccccc34)=C(N3CCN(CCCOC(=O)/C=C/C(=O)OC)CC3)C2=O)CC1`, the IC50 is 61.4 µM in the series with HepG2, more than 100 µM in the series with A549 and 13.5 µM in the series with MDA-MB-231 [6].

On to `Cc1[nH]c2ccccc2c1C1=C(NCCNC(=O)OC(C)(C)C)C(=O)C(F)=C(NCCNC(=O)OC(C)(C)C)C1=O`, for which the IC50 was determined as 13.1 µM in the series on HepG2, 13.8 µM in the series with A549 and 10.2 µM in the series with MDA-MB-231 [6].

As for `Cc1[nH]c2ccccc2c1C1=C(N2CCOCC2)C(=O)C(F)=C(N2CCOCC2)C1=O`, the half-inhibitory concentration (IC50) in the series on HepG2 stood at 16.1 µM; in the series on A549, 15.4 µM; in the series with MDA-MB-231 [6], 8.16 µM.

On to `COC(=O)/C=C/C(=O)OCCNC1=C(F)C(=O)C(c2c(C)[nH]c3ccccc23)=C(F)C1=O`, for which the 50% inhibitory concentration (IC50) came out at 25 µM in the series with HepG2, 6.31 µM in the series with A549 and 6.47 µM in the series on MDA-MB-231 [6].

In the case of `Cc1[nH]c2ccccc2c1C1=C(N2CCCCC2)C(=O)C(F)=C(N2CCCCC2)C1=O`, the results for the IC50 in the series with HepG2, in the series on A549 and in the series with MDA-MB-231 [6] were 4.22 µM, 6.8 µM and 4.41 µM, respectively.

For the compound `Cc1[nH]c2ccccc2c1C1=C(F)C(=O)C(c2c(C)[nH]c3ccccc23)=C(N2CCOCC2)C1=O`, the half-inhibitory concentration (IC50) in the series with HepG2 worked out at 12.4 µM; in the series on A549, 10.2 µM; in the series with MDA-MB-231 [6], 8.9 µM.

Regarding `Cc1[nH]c2ccccc2c1C1=C(NC2CC2)C(=O)C(F)=C(NC2CC2)C1=O`, the values for the concentration for half-maximal inhibition (IC50) in the series on HepG2, with A549 and with MDA-MB-231 [6] were 4.19 µM, 4.93 µM and 5.49 µM, respectively.

The values above are taken from ChEMBL document CHEMBL6114979, “Discovery of 3-indolylbenzoquinone derivatives with therapeutic potential for breast cancer” (Bioorg Med Chem, 2025).
